# Reference: ChEMBL document CHEMBL1149974, “New Oligosaccharidic Crown Ethers as Potential Drug-Targetting Vectors: Synthesis & Biological Evaluation” (1994)
# Test system: Saccharomyces cerevisiae
# Test: Minimum inhibitory concentration required for in vitro inhibition of flocculation against cell wall galactose-specific yeast lectin (KbCWL)
# Format: functional
row,Molecule,MIC [µM]
1,O=C[C@H](O)[C@@H](O)[C@@H](O)[C@H](O)CO [GALACTOSE],3500
2,CO[C@@H]1O[C@H](CO)[C@H](O)[C@H](O)[C@H]1O,1750
3,"CO[C@H]1O[C@@H](C)[C@@H](O[C@@H]2O[C@@H](CO)[C@H](O)C(O)[C@@H]2O)C2OCCOCCOc3ccccc3OCCOCCO[C@@H]21 (single isomer, unassigned)",2650

# Further lines, results first:
row,MIC [µM],Molecule
1,3000,CO[C@H]1O[C@@H](C)[C@@H](O[C@@H]2O[C@@H](CO)[C@@H](O[C@@H]3O[C@@H](CO)[C@H](O)[C@H](O)[C@@H]3O)[C@H](O)[C@@H]2O)[C@@H]2OCCOCCOc3ccccc3OCCOCCO[C@H]12
2,1250,"LACTOSE, ANHYDROUS"
